What was measured:
[1] = tested on: peripheral blood mononuclear cells (PBMC); assay: Visual examination of PBMC incubated with dendrimers; type: cell-based, human; conditions: for visual examination of PBMC: 48 hours
Method: The toxicity of dendrimers IM8, IM16, ClNH4, NN, Phe and the commercial controls SF (Superfect) and G4 were tested. Different quantities were taken of each one of them so that the final concentrations with which the cells were incubated were 1 μM, 5 μM, 10 μM, 20 μM and 100 μM.
The blood came from adult donors or the umbilical cord of health newborns. Said blood was diluted ½ with PBS and it was centrifuged in a Ficoll gradient. After said centrifugation, the PBMC halo was recovered and two subsequent washing-centrifuging cycles were carried out. The resulting PBMC were resuspended in complete culture medium with 10% FCS, antibiotics and glutamine.
100 μl of 10% complete medium of foetal calf serum, antibiotics and glutamine were added to a volume of 60 μl of RPMI with the corresponding dendrimer tested. 160 μl were then added to the cells seeded in 340 μl, completing a final volume of 500 μl. The cells were incubated in this way for 48 hours and then the effect of the incubation with the dendrimers was evaluated by its visual examination and by the evaluation of the mitochondrial activity.

[2] = tested on: PBMC; assay: Lymphoproliferative test (tritiated thymidine); type: cell-based, human; conditions: 5 days, average of triplicate
Method: To evaluate the antigenic capacity of CBS dendrimers, a lymphoproliferative test was performed. The experiment was prepared in triplicate in a 96-well flat bottomed plate (100,000 cells per well in 200 μl of complete human AB medium with antibiotics, glutamine and 10% AB serum). […] After 5 days of incubation at 37° C. with 5% atmosphere of CO2 100 μl of supernatant was removed, then adding 100 μL of a medium with an isotopic intercalating agent of DNA, tritiated thymidine (prepared with 10% AB medium and Thymidine 1/100). The plate was then filtered using a Harvester passing its content through a filter, which was left to dry overnight (approx. 16 hours). After this period, a sheet of Methylex® containing scintillation medium was heat-melted, and it was read in a gamma camera to evaluate the number of counts (greater the counts, more proliferation). The results, which are shown below in Table 8, are expressed as tritiated thymidine counts per minute (cpm). Each result of each concentration was performed in triplicate, the value which appears in the table being the average of the 3. The PHA and the control were tested 12 times.

[3] = tested on: PBMC; assay: Staining with Trypan Blue of PBMC treated with dendriplexes or dendrimers; conditions: 72 hours, (+/−)=2/1, IM8 3.93 μM, IM16 1.99 μM, ClNH4 3.98 μM, Phe 1.96 μM, NN 3.94 μM, SF 0.68 μM, G4 100 μM, PPT 0.88 μM (0.34 μM with SF, 1 μM with G4), n = 100 cells per count
[4] = tested on: ODN PPT; assay: Stability of the dendriplexes at different pHs; type: physicochemical; conditions: dendriplexes with PPT, 2/1 charge ratio; pHs 2.8; 2.7; 4.7; 5.7; 6.4; 7.4; 8
Method: Stability studies were carried out on the complexes a different pHs, to determine how the changes in pH would affect the complex, since there are different anatomic, tissue or cell localizations in which the pH acidifies or alkalinifies. Examples are stomach ambient acid, the alkali of the pancreatic secretions of the small intestine, or at a cellular level, the endosome-lisosome behaviour, where it changes from a physiological pH (7.35-7.45) to an acid pH around 4. It is interesting to know, therefore, in what pH range the DNA complex could be maintained with the different CBS used. The complexes were formed following the habitual process and volumes were added in excess of different solutions at different pHs. Therefore, for each one of dendrimers Phe, ClNH4, NN, IM8 and IM16, according to Example 31, 7 solutions were prepared of dendriplexes formed with PPT, in a 2/1 charge ratio and with the following pHs: […]; 2.7; 4.7; 5.7; 6.4; 7.4; 8: The results produced are shown in the electrophoresis gels which appear in FIG. 4, wherein the height of the normal ODN migration band is shown with arrows in the lower part of the gels. The samples were loaded from left to right following an increasing pH order. No sample was formed in the wells indicated with an X.

[5] = tested on: PBMC; assay: Flow cytometry test (size and complexity; live cells vs apoptosis-necrosis); type: cell-based, human; conditions: 72 hours, same concentrations as Trypan Blue test
Method: The evaluation time on this occasion was 72 hours. The toxicity was evaluated on PBMC, produced in the manner described in Example 38. […] The ODN used was PPT, in the following way: • [ODN PPT] in the complex with the CBS: 2.57 (0.88 μM) • [ODN PPT] in the complex with SF: 0.34 μM • [ODN PPT] in the complex with G4: 1 μM […] The cells were either incubated with said complexes, a mixture of equal volume which contained ODN without CBS, a mixture which contained dendrimer alone, or with a mixture which contained only RPMI+complete medium which was used as negative control. The cells and/or the supernatant were then collected to be analysed by flow cytometry, confocal microscopy or cell DNA extraction. The percentages of cells with size and complexity corresponding to cells in apoptosis-necrosis were compared with the live cells. For this, the size (FW) and the complexity (SD) was evaluated by flow cytometry. To do this, a region was drawn around the cells with FW and SD corresponding to cells in apoptosis-necrosis and another around the cells with FW and SD corresponding to live cells. The percentages of cells present in each slide were compared. The graphics produced are shown in FIG. 15, wherein the X-axis represents the size (FW) and the Y-axis the complexity (SD). […] The cloud of dark cells corresponds to cells in apoptosis necrosis. The live cells are represented in grey.

[6] = tested on: erythrocytes; assay: Visual examination of erythrocytes (hemagglutination); type: cell-based, human
Method: A visual examination was carried out to detect the presence/absence of hemagglutination and quantification of haemoglobin release (haemolysis test) by spectrophotometry. ClNH4 was excluded from the dendrimers of previous Example 38, as the result had been more toxic for lymphocytes, and the results were compared with those produced for a PAMAN type generation 4 dendrimer.
The erythrocytes were obtained after being separated from the PBMC using the same Ficoll gradient cited in the previous Example. They were diluted in PBS to be able to view them individually. The cells were resuspended in 500 μl of PBS and were seeded in a 24-well plate (300,000/well). As positive control, cells treated with 0.2% Triton X-100 were used. Negative control: PBS (blank). The erythrocytes were incubated with different dendrimer concentrations. The presence of hemagglutination, number of cells and release of haemoglobin by hour were evaluated by collecting 100 μl of supernatant and measuring absorbencies by spectrophotometry using a plate reader at a wavelength of 550 nm and 690 nm as reference.

**Q.** What does the source list for C[N+](C)(C)CCOc1cc(CO[Si](C)(C)CCC[Si](C)(CCC[Si](CCC[Si](C)(CCC[Si](C)(C)OCc2cc(OCC[N+](C)(C)C)cc(OCC[N+](C)(C)C)c2)CCC[Si](C)(C)OCc2cc(OCC[N+](C)(C)C)cc(OCC[N+](C)(C)C)c2)(CCC[Si](C)(CCC[Si](C)(C)OCc2cc(OCC[N+](C)(C)C)cc(OCC[N+](C)(C)C)c2)CCC[Si](C)(C)OCc2cc(OCC[N+](C)(C)C)cc(OCC[N+](C)(C)C)c2)CCC[Si](C)(CCC[Si](C)(C)OCc2cc(OCC[N+](C)(C)C)cc(OCC[N+](C)(C)C)c2)CCC[Si](C)(C)OCc2cc(OCC[N+](C)(C)C)cc(OCC[N+](C)(C)C)c2)CCC[Si](C)(C)OCc2cc(OCC[N+](C)(C)C)cc(OCC[N+](C)(C)C)c2)cc(OCC[N+](C)(C)C)c1.[I-].[I-].[I-].[I-].[I-].[I-].[I-].[I-].[I-].[I-].[I-].[I-].[I-].[I-].[I-].[I-] [Phe, 2G-[Si(OCH2—(C6H3)-3,5-(OCH2CH2NMe3^+I^−)2)]8]?
**A.** toxicity for the lymphocytes from the visual observation (comparison) [1]: least toxic; visual examination of PBMC ([1]; 1 μM): O.K; visual examination of PBMC ([1]; 5 μM): O.K; visual examination of PBMC ([1]; 10 μM): O.K; visual examination of PBMC ([1]; 20 μM): Few cells; visual examination of PBMC ([1]; 100 μM): Isolated cells.; Measurement of the scintillation counter (tritiated thymidine counts) ([2]; 2 μM): 146 cpm; Measurement of the scintillation counter (tritiated thymidine counts) ([2]; 5 μM): 170 cpm; TB+ (%), cells stained with Trypan Blue [3]: 11.3%; stability of dendrimer-ODN complex at the pHs tested [4]: stable at all pHs tested; Apoptosis-necrosis (%) [5]: 33%; Live cells (%) [5]: 61%; induction of hemagglutination / haemolysis [6]: induces hemagglutination; order of hemagglutination from greater to lesser [6]: G4>Phe>IM16>IM8>NN; Visual examination of erythrocytes incubated with dendrimers ([6]; 1 μM): Ag+; Visual examination of erythrocytes incubated with dendrimers ([6]; 5 μM): Ag+++; Visual examination of erythrocytes incubated with dendrimers ([6]; 10 μM): Ag+++
